Data published in patent publication US20180282679A1, “CELL CULTURE APPARATUS” (The Ritsumeikan Trust, priority 2015, published 2018).

Legend:
caco-2 cells [1] = assay: Evaluation Test 2: perfusion of fluorescent dyes through the tubular-form culture substrate, absorption into cultured cells; type: in vitro ADME; details: HBSS, flow rate 0.05 mL min^-1 for 1 hour; calcein 100 μmol L^-1, Texas Red 10 μmol L^-1
Description: Specifically, caco-2 cells imitating intestinal epithelium were cultured on a culture substrate. Caco-2 cells produced by DS pharma biomedical Co., Ltd. were used. The caco-2 cells were cultured in DMEM (Dulbecco-modified eagle's medium) to which 10% heat inactivated fetal bovine serum, penicillin G (100 U mL^−1), streptomycin (100 μg mL^−1), and 1% non-essential amino acid were added, under an environment at 37° C., 5% CO2), and 95% air. The caco-2 cells were dissociated in EDTA and 0.05% trypsin and passaged, and then the cells were seeded on collagen that forms a culture substrate on an upper surface of a balloon actuator. The caco-2 cells reached confluence in 7 days. The culture medium was replaced every 24 hours. […]
The culture substrate in the tubular form was perfused with HBSS (Hanks' Balanced Salt Solution) containing fluorescent dyes, as a liquid corresponding to a drug solution, at a flow rate of 0.05 mL min^−1 for 1 hour. […] Thereafter, bright field images and fluorescence images of the caco-2 cells at a bottom part and an upper part of the culture substrate in the tubular form were observed.
FIGS. 16A, 16B, 16C, 16D, 16E and 16G show microscope images of the caco-2 cells. […] FIGS. 16C and 16D show images obtained by imaging fluorescence signals from calcein at the bottom part and the upper part of the culture substrate in the tubular form, respectively. […]

caco-2 cells [2] = assay: Evaluation Test 3: absorption of dyes in tubular-form culture substrates having different inner diameters; type: in vitro ADME; details: inner diameter 0.5, 1.0 and 2.0 mm; flow rate 0.05 mL/min, perfused for 3 minutes
Text: The inventors of the present application studied dynamic characteristics of a fluid and absorption of a drug into a culture substrate in a tubular form when a liquid such as a drug solution was caused to flow in the culture substrate. Specifically, a fluid containing a drug was caused to flow in a plurality of types of tubular-form culture substrates having different inner diameters, and the states of the culture substrates before and after the flow of the fluid were observed. In addition, dynamic characteristics of the fluid in the respective tubular-form culture substrates were obtained by calculation.
where Q is the flow rate of the liquid, μ is the viscosity of the liquid, ρ is the density of the liquid, L is the length of the tube, and r is the radius of the tube. The flow rate Q of the liquid is 0.05 mL/min, and the liquid was perfused for 3 minutes.
FIGS. 19A, 19B and 19C show images obtained by causing a fluid containing Texas Red as a model of a lipophilic drug to flow in three types of tubular-form culture substrates having different diameters, and imaging fluorescence signals from the Texas Red. […]
FIGS. 20A, 20B and 20C show images obtained by causing a fluid containing calcein as a model of a hydrophilic drug to flow in three types of tubular-form culture substrates having different inner diameters, and imaging fluorescence signals from the calcein.

absorption in the caco-2 cells (fluorescence images at bottom part and upper part of the tubular culture substrate) (caco-2 cells [1]) | Compound | speed of absorption depending on inner diameter of the tubular-form culture substrate (fluorescence images) (caco-2 cells [2])
uniformly absorbed in the caco-2 cells | O=C(O)CN(CC(=O)O)Cc1cc2c(cc1O)Oc1cc(O)c(CN(CC(=O)O)CC(=O)O)cc1C21OC(=O)c2ccccc21 [calcein] | substantially no difference was observed in the speed of absorbing the hydrophilic drug
uniformly absorbed in the caco-2 cells | Texas Red | the smaller the inner diameter of the tube is, the faster the lipophilic drug is absorbed
